Results from patent US6610689B2, “HIV protease inhibitors based on amino acid derivatives” (priority 2001, dated 2003).

Target: T1, HIV protease (Human immunodeficiency virus type 1 group M subtype B, UniProt P04585)
T1 construct: A third viral enzyme known as protease then cleaves the polyproteins
Test: Enzymatic Assay for Determining the Inhibition Constant (Ki) of Synthetic Compounds Targeting the HIV Protease (fluorometric FRET assay)
Assay type: biochemical
Details: not given
How it was run: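 Fluorometric FRET assay following protease cleavage of an EDANS/DABCYL-labelled substrate. Initial velocities without (Vo) and with inhibitor (Vi) measured; Ki derived from the Henderson equation using inhibitor and substrate concentrations and Km.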

Going from `CC(C)CN(C(CO)CCCCNC(=O)C(Cc1c[nH]c2ccccc12)NC(=O)c1ccccc1)S(=O)(=O)c1ccc(N)cc1` [Example 186, (2S,2′S) 2-N-(4-Aminobenzenesulfonyl)-2-N-isobutyl-6-N-(N′α-benzoyl-S-tryptophanyl)-2,6-diaminohexanol] to `Cc1ccc(S(=O)(=O)N(CC(C)C)[C@H](CO)CCCCNC(=O)[C@H](Cc2c[nH]c3ccccc23)NC(=O)c2ccccc2)cc1` [Example 191, (2S,2′S) 2-N-Isobutyl-2-N-(4-methylbenzenesulfonyl)-6-N-(N′α-benzoyl-S-tryptophanyl)-2,6-diaminohexanol], the Ki rises from 1.7 nM to 3.8 nM (2.2-fold).

Compared with `CC(C)CN([C@H](CO)CCCCNC(=O)[C@H](Cc1c[nH]c2ccccc12)NS(=O)(=O)c1ccc(N)cc1)S(=O)(=O)c1ccc(N)cc1` [Example 187, (2S,2′S) 2-N-(4-Aminobenzenesulfonyl)-2-N-isobutyl-6-N-[N′α-(4-aminobenzenesulfonyl)-S-tryptophanyl]-2,6-diaminohexanol], `CC(C)CN([C@H](CO)CCCCNC(=O)[C@H](Cc1ccccc1)NS(=O)(=O)c1ccc(N)cc1)S(=O)(=O)c1ccc(N)cc1` [Example 195, (2S,2′S) 2-N-(4-Aminobenzenesulfonyl)-2-N-isobutyl-6-N-[N′α-(4-aminobenzenesulfonyl)-S-phenylalanyl]-2,6-diaminohexanol] is 100-fold higher in Ki: 0.2 nM for the first, 20 nM for the second. The first binds more tightly here.

First: Cc1ccc(S(=O)(=O)N(CC(C)C)[C@H](CO)CCCCNC(=O)[C@H](CC#N)NS(=O)(=O)c2ccccc2)cc1 [Example 188, (2S,2′S) 2-N-Isobutyl-2-N-(4-methylbenzenesulfonyl)-6-N-(N′α-benzenesulfonyl-S-cyanoalanyl)-2,6-diaminohexanol]
Second: Cc1ccc(S(=O)(=O)N[C@@H](Cc2ccccc2)C(=O)NCCCC[C@@H](C(=O)O)N(CC(C)C)S(=O)(=O)c2ccccc2)cc1 [Example 200, Nα-Benzenesulfonyl-Nα-isobutyl-Nε-[N′α-(4-methylbenzenesulfonyl)-L-phenylalanyl]-L-lysine]
The Ki of the first is 2.5-fold higher: 79 nM for the first, 31 nM for the second.

First: Cc1ccc(S(=O)(=O)N(CC(C)C)[C@@H](CCCCNC(=O)[C@H](Cc2c[nH]c3ccccc23)NS(=O)(=O)c2ccccc2)C(N)=O)cc1 [Example 189, Nα-Isobutyl-Nα-(4-methylbenzenesulfonyl)-Nε-(N′α-benzenesulfonyl-L-tryptophanyl)-L-lysine Amide]
Second: Cc1ccc(S(=O)(=O)N[C@@H](Cc2ccccc2)C(=O)NCCCC[C@@H](C(=O)O)N(CC(C)C)S(=O)(=O)c2ccc(N)cc2)cc1 [Example 201, Nα-(4-Aminobenzenesulfonyl)-Nα-isobutyl-Nε-[N′α-(4-methylbenzenesulfonyl)-L-phenylalanyl]-L-lysine]
The Ki of the first is 2.2-fold lower: 1.9 nM for the first, 4.1 nM for the second. The first binds more tightly here.

Compared with `COC(=O)N[C@@H](Cc1c[nH]c2ccccc12)C(=O)NCCCC[C@@H](CO)N(CC(C)C)S(=O)(=O)c1ccc(C)cc1` [Example 190, (2S,2′S) 2-N-Isobutyl-2-N-(4-methylbenzenesulfonyl)-6-N-(N′α-methoxycarbonyl-S-tryptophanyl)-2,6-diaminohexanol], `Cc1ccc(S(=O)(=O)N(CC(C)C)[C@H](CO)CCCCNC(=O)[C@H](Cc2c[nH]c3ccccc23)NC(=O)OCC(C)C)cc1` [Example 192, (2S,2′S) 2-N-Isobutyl-2-N-(4-methylbenzenesulfonyl)-6-N-(N′α-isobutoxycarbonyl-S-tryptophanyl)-2,6-diaminohexanol] is 2-fold higher in Ki: 2.2 nM for the first, 4.5 nM for the second.

Compared with `CC(C)COC(=O)N[C@@H](Cc1c[nH]c2ccccc12)C(=O)NCCCC[C@@H](CO)N(CC(C)C)S(=O)(=O)c1ccc(N)cc1` [Example 193, (2S,2′S) 2-N-(4-Aminobenzenesulfonyl)-2-N-isobutyl-6-N-(N′α-isobutoxycarbonyl-S-tryptophanyl)-2,6-diaminohexanol], `CC(C)CN([C@H](CO)CCCCNC(=O)[C@H](Cc1ccccc1)NS(=O)(=O)c1ccc([N+](=O)[O-])cc1)S(=O)(=O)c1ccc(N)cc1` [Example 194, (2S,2′S) 2-N-(4-Aminobenzenesulfonyl)-2-N-isobutyl-6-N-[N′α-(4-nitrobenzenesulfonyl)-S-phenylalanyl]-2,6-diaminohexanol] is 21-fold higher in Ki: 4.1 nM for the first, 85 nM for the second. The first binds more tightly here.

First: COc1ccc(NC(=O)N[C@@H](Cc2ccccc2)C(=O)NCCCC[C@@H](C(=O)O)N(CC(C)C)S(=O)(=O)c2ccc(C)cc2)cc1 [Example 196, Nα-Isobutyl-Nα-(4-methylbenzenesulfonyl)-Nε-[N′α-(4-methoxyanilinecarbonyl)-L-phenylalanyl]-L-lysine]
Second: CNC(=O)N[C@@H](Cc1ccccc1)C(=O)NCCCC[C@@H](C(=O)O)N(CC(C)C)S(=O)(=O)c1ccc(C)cc1 [Example 198, Nα-Isobutyl-Nα-(4-methylbenzenesulfonyl)-Nε-(N′α-methylaminocarbonyl-L-phenylalanyl)-L-lysine]
The Ki of the first is 2.2-fold lower: 0.5 nM for the first, 1.1 nM for the second. The first binds more tightly here.

`Cc1ccc(S(=O)(=O)N(CC(C)C)[C@@H](CCCCNC(=O)[C@H](Cc2ccccc2)NC(=O)N2CCCC2)C(=O)O)cc1` [Example 197, Nα-Isobutyl-Nα-(4-methylbenzenesulfonyl)-Nε-(N′α-pyrrolidinecarbonyl-L-phenylalanyl)-L-lysine] and `Cc1ccc(S(=O)(=O)N(CC(C)C)[C@@H](CCCCNC(=O)[C@H](Cc2ccccc2)NC(=O)NCCO)C(=O)O)cc1` [Example 199, Nα-Isobutyl-Nα-(4-methylbenzenesulfonyl)-Nε-(N′α-ethanolaminocarbonyl-L-phenylalanyl)-L-lysine] are within 1.5-fold of each other in Ki: 1.7 nM for the first, 2.2 nM for the second.

Same assay, conditions: Anti-protease activity of Ne-amino acid substituted L-lysine derivatives and analogs of formula I; read-out: Ki

Going from “Nα-Isobutyl-Nα-(4-methylbenzenesulfonyl)-Nε-[N′α-(4-bromobenzenesulfonyl)-L-phenylalanyl]-L-lysine [Example 20]” to “Nα-Isobutyl-Nα-(4-methylbenzenesulfonyl)-Nε-[N′α-(4-methylbenzenesulfonyl)-L-phenylalanyl-N-cyanoamidine]-L-lysine [Example 98]”, the Ki falls from 19 nM to 5.1 nM (3.7-fold). The second binds more tightly here.

Same assay, conditions: Table 1, compounds of formula I; read-out: Ki (anti-protease activity)

Compared with “(2S,2′S) 2-N-Isobutyl-2-N-(4-methylbenzenesulfonyl)-6-N-(N′α-tert-butoxycarbonyl-S-4-thiazolylalanyl)-2,6-diaminohexanol [Example 137]”, “Nα-Isobutyl-Nα-(4-methylbenzenesulfonyl)-Nε-(N′α-benzylglycyl)-L-lysine [Example 109]” is higher in Ki: 96 nM for the first, over 300 nM for the second.
